According to ChEMBL document CHEMBL2202961, “Antiproliferative activity of salinomycin and its derivatives” (Bioorg Med Chem Lett, 2012):
Converted amounts (≈) assume the structure as drawn.

How the values were obtained:
BALB/3T3 [1] = assay: Selectivity index, ratio of IC50 for mouse BALB/3T3 cells to IC50 doxorubicin-resistant human LoVo/DX cells
LoVo [2] = assay: Selectivity index, ratio of IC50 for mouse BALB/3T3 cells to IC50 for human LoVo cells; type: functional
BALB/3T3 [3] = assay: Selectivity index, ratio of IC50 for mouse BALB/3T3 cells to IC50 for human vincristine-resistant human HL60/Vinc cells; type: functional
BALB/3T3 [4] = assay: Cytotoxicity against mouse BALB/3T3 cells incubated for 72 hrs by MTT assay; type: cell-based; details: BALB/3T3, 72 h
BALB/3T3 [5] = assay: Selectivity index, ratio of IC50 for mouse BALB/3T3 cells to IC50 for human HL60 cells; type: functional
LoVo [6] = assay: Resistance index, ratio of IC50 for doxorubicin-resistant human LoVo/DX cells to IC50 for parental human LoVo cells; type: functional
[7] = Cytotoxicity against doxorubicin-resistant human LoVo/DX cells incubated for 72 hrs by MTT assay; type: functional, cell-based
HL-60 [8] = assay: Resistance index, ratio of IC50 for vincristine-resistant human HL60/Vinc cells to IC50 for parental human HL60 cells; type: functional
LoVo [9] = assay: Cytotoxicity against human LoVo cells incubated for 72 hrs by MTT assay; type: functional, cell-based
[10] = Cytotoxicity against vincristine-resistant human HL60/Vinc cells incubated for 72 hrs by MTT assay; type: functional, cell-based
HL-60 [11] = assay: Cytotoxicity against human HL60 cells incubated for 72 hrs by MTT assay; details: HL-60, 72 h
Staphylococcus aureus = assay: Antimicrobial activity against methicillin-resistant Staphylococcus aureus; type: functional

## CC[C@@H](C(=O)[C@@H](C)[C@@H](O)[C@H](C)[C@@H]1O[C@@H]([C@@H](CC)C(=O)Nc2ccccc2)CC[C@@H]1C)[C@H]1O[C@]2(C=C[C@@H](O)[C@]3(CC[C@@](C)([C@H]4CC[C@](O)(CC)[C@H](C)O4)O3)O2)[C@H](C)C[C@@H]1C
BALB/3T3 [1]
  Ratio IC50: 2.21
LoVo [2]
  Ratio IC50: 1.72
BALB/3T3 [3]
  Ratio IC50: 1.64
BALB/3T3 [4]
  IC50: 7.08 µM
BALB/3T3 [5]
  Ratio IC50: 1.86
LoVo [6]
  Ratio IC50: 0.78
[7]
  IC50: 3.21 µM
HL-60 [8]
  Ratio IC50: 1.14
LoVo [9]
  IC50: 4.11 µM
[10]
  IC50: 4.31 µM
HL-60 [11]
  IC50: 3.79 µM

## CCCCNC(=O)[C@H](CC)[C@H]1CC[C@H](C)[C@H]([C@@H](C)[C@H](O)[C@H](C)C(=O)[C@H](CC)[C@H]2O[C@]3(C=C[C@@H](O)[C@]4(CC[C@@](C)([C@H]5CC[C@](O)(CC)[C@H](C)O5)O4)O3)[C@H](C)C[C@@H]2C)O1
BALB/3T3 [1]
  Ratio IC50: 2.56
LoVo [2]
  Ratio IC50: 2.03
BALB/3T3 [3]
  Ratio IC50: 1.55
BALB/3T3 [4]
  IC50: 8.21 µM
BALB/3T3 [5]
  Ratio IC50: 2.12
LoVo [6]
  Ratio IC50: 0.81
[7]
  IC50: 3.26 µM
HL-60 [8]
  Ratio IC50: 1.37
LoVo [9]
  IC50: 4.04 µM
[10]
  IC50: 5.31 µM
HL-60 [11]
  IC50: 3.88 µM

## CC[C@@H](C(=O)[C@@H](C)[C@@H](O)[C@H](C)[C@@H]1O[C@@H]([C@@H](CC)C(=O)NCc2ccccc2)CC[C@@H]1C)[C@H]1O[C@]2(C=C[C@@H](O)[C@]3(CC[C@@](C)([C@H]4CC[C@](O)(CC)[C@H](C)O4)O3)O2)[C@H](C)C[C@@H]1C
BALB/3T3 [1]
  Ratio IC50: 2.19
LoVo [2]
  Ratio IC50: 1.81
BALB/3T3 [3]
  Ratio IC50: 1.21
BALB/3T3 [4]
  IC50: 7.26 µM
BALB/3T3 [5]
  Ratio IC50: 2
LoVo [6]
  Ratio IC50: 0.82
[7]
  IC50: 3.31 µM
HL-60 [8]
  Ratio IC50: 1.66
LoVo [9]
  IC50: 4.02 µM
[10]
  IC50: 6.02 µM
HL-60 [11]
  IC50: 3.63 µM

## CC[C@@H](C(=O)[C@@H](C)[C@@H](O)[C@H](C)[C@@H]1O[C@@H]([C@@H](CC)C(=O)NCCc2c[nH]c3ccccc23)CC[C@@H]1C)[C@H]1O[C@]2(C=C[C@@H](O)[C@]3(CC[C@@](C)([C@H]4CC[C@](O)(CC)[C@H](C)O4)O3)O2)[C@H](C)C[C@@H]1C
BALB/3T3 [1]
  Ratio IC50: 3.59
LoVo [2]
  Ratio IC50: 2.9
BALB/3T3 [3]
  Ratio IC50: 2.31
BALB/3T3 [4]
  IC50: 9.98 µM
BALB/3T3 [5]
  Ratio IC50: 2.84
LoVo [6]
  Ratio IC50: 0.81
[7]
  IC50: 2.78 µM
HL-60 [8]
  Ratio IC50: 1.22
LoVo [9]
  IC50: 3.45 µM
[10]
  IC50: 4.31 µM
HL-60 [11]
  IC50: 3.52 µM

## CC[C@@H](C(=O)[C@@H](C)[C@@H](O)[C@H](C)[C@@H]1O[C@@H]([C@@H](CC)C(=O)NCCOCCOCCOC)CC[C@@H]1C)[C@H]1O[C@]2(C=C[C@@H](O)[C@]3(CC[C@@](C)([C@H]4CC[C@](O)(CC)[C@H](C)O4)O3)O2)[C@H](C)C[C@@H]1C
BALB/3T3 [1]
  Ratio IC50: 1.28
LoVo [2]
  Ratio IC50: 1.31
BALB/3T3 [3]
  Ratio IC50: 1.34
BALB/3T3 [4]
  IC50: 39.1 µM
BALB/3T3 [5]
  Ratio IC50: 1.57
LoVo [6]
  Ratio IC50: 1.03
[7]
  IC50: 30.6 µM
HL-60 [8]
  Ratio IC50: 1.17
LoVo [9]
  IC50: 29.9 µM
[10]
  IC50: 29.1 µM
HL-60 [11]
  IC50: 24.9 µM

## CC[C@@H](C(=O)[C@@H](C)[C@@H](O)[C@H](C)[C@@H]1O[C@@H]([C@@H](CC)C(=O)On2nnc3ccccc32)CC[C@@H]1C)[C@H]1O[C@]2(C=C[C@@H](O)[C@]3(CC[C@@](C)([C@H]4CC[C@](O)(CC)[C@H](C)O4)O3)O2)[C@H](C)C[C@@H]1C
BALB/3T3 [1]
  Ratio IC50: 4.83
LoVo [2]
  Ratio IC50: 7.76
BALB/3T3 [3]
  Ratio IC50: 6.08
BALB/3T3 [4]
  IC50: 31.9 µM
BALB/3T3 [5]
  Ratio IC50: 17.33
LoVo [6]
  Ratio IC50: 1.61
[7]
  IC50: 6.61 µM
HL-60 [8]
  Ratio IC50: 2.85
LoVo [9]
  IC50: 4.11 µM
[10]
  IC50: 5.25 µM
HL-60 [11]
  IC50: 1.84 µM
Staphylococcus aureus
  MIC: 1 µg/mL (≈ 1.15 µM)

## CC[C@@H](C(=O)[C@@H](C)[C@@H](O)[C@H](C)[C@@H]1O[C@@H]([C@@H](CC)C(=O)Nc2ccc3c(c2)OCCOCCOCCOCCO3)CC[C@@H]1C)[C@H]1O[C@]2(C=C[C@@H](O)[C@]3(CC[C@@](C)([C@H]4CC[C@](O)(CC)[C@H](C)O4)O3)O2)[C@H](C)C[C@@H]1C
BALB/3T3 [1]
  Ratio IC50: 4.51
LoVo [2]
  Ratio IC50: 4.08
BALB/3T3 [3]
  Ratio IC50: 3.71
BALB/3T3 [4]
  IC50: 25.5 µM
BALB/3T3 [5]
  Ratio IC50: 8.27
LoVo [6]
  Ratio IC50: 0.91
[7]
  IC50: 5.65 µM
HL-60 [8]
  Ratio IC50: 2.23
LoVo [9]
  IC50: 6.24 µM
[10]
  IC50: 6.87 µM
HL-60 [11]
  IC50: 3.08 µM

## CC[C@@H](C(=O)[C@@H](C)[C@@H](O)[C@H](C)[C@@H]1O[C@@H]([C@@H](CC)C(=O)NCCCN2CCOCC2)CC[C@@H]1C)[C@H]1O[C@]2(C=C[C@@H](O)[C@]3(CC[C@@](C)([C@H]4CC[C@](O)(CC)[C@H](C)O4)O3)O2)[C@H](C)C[C@@H]1C
BALB/3T3 [1]
  Ratio IC50: 1.78
LoVo [2]
  Ratio IC50: 1.92
BALB/3T3 [3]
  Ratio IC50: 1.23
BALB/3T3 [4]
  IC50: 34.7 µM
BALB/3T3 [5]
  Ratio IC50: 6.16
LoVo [6]
  Ratio IC50: 1.08
[7]
  IC50: 19.4 µM
HL-60 [8]
  Ratio IC50: 4.99
LoVo [9]
  IC50: 18 µM
[10]
  IC50: 28.1 µM
HL-60 [11]
  IC50: 5.63 µM

## COc1cccc2c1C(=O)c1c(O)c3c(c(O)c1C2=O)C[C@@](O)(C(=O)CO)C[C@@H]3O[C@H]1C[C@H](N)[C@H](O)[C@H](C)O1 [DOXORUBICIN]
BALB/3T3 [4]
  IC50: 1.91 µM
[7]
  IC50: 12.1 µM
LoVo [9]
  IC50: 0.38 µM
[10]
  IC50: 0.91 µM

## CC[C@@H](C(=O)[C@@H](C)[C@@H](O)[C@H](C)[C@@H]1O[C@@H]([C@@H](CC)C(=O)O)CC[C@@H]1C)[C@H]1O[C@]2(C=C[C@@H](O)[C@]3(CC[C@@](C)([C@H]4CC[C@](O)(CC)[C@H](C)O4)O3)O2)[C@H](C)C[C@@H]1C [SALINOMYCIN]
BALB/3T3 [1]
  Ratio IC50: 4.51
LoVo [2]
  Ratio IC50: 25.3
BALB/3T3 [3]
  Ratio IC50: 8.16
BALB/3T3 [4]
  IC50: 28.1 µM
BALB/3T3 [5]
  Ratio IC50: 63.81
LoVo [6]
  Ratio IC50: 5.61
[7]
  IC50: 6.23 µM
HL-60 [8]
  Ratio IC50: 7.82
LoVo [9]
  IC50: 1.11 µM
[10]
  IC50: 3.44 µM
HL-60 [11]
  IC50: 0.44 µM
